Patent US11117901B2, “Substituted pyrazolo[4,3-h]quinazolines as choline kinase inhibitors” (NERVIANO MEDICAL SCIENCES S.R.L., priority 2017, dated 2021)

How the values were obtained:
Δ49N-hChoKα = biological target: T1, Δ49N-hChoKα (Homo sapiens, UniProt P35790); assay: Biochemical kinase inhibition assay (Kinase-Glo luminescent) on Δ49N-hChoKα; details: recombinant Δ49N-hChoKα 2.2 nM, ATP 5 μM, choline 5 μM, 60 min rt; read-out: ChoKα IC50
T1 construct: cDNA fragment 362-1534, corresponding to aminoacids 50 457; GST (N, cleaved yes); PreScission Protease recognition site (N); made in house; host or cells: Escherichia coli BL21pLysS (DE3)
Method: (§1) HumanΔ49ChoKα ([…]Δ49N-hChoKα) cDNA fragment 362-1534, corresponding to aminoacids 50 457 (J. Mol. Biol. 2006, 364, 136-151), and hChoKβ full length (FL), corresponding to aminoacids 2-395 ((PLoS ONE 2009, 4, e7819), were amplified by PCR from human library and cloned, inserting upstream a Prescission Protease recognition site, in pDonor 221 vector, using the Gateway Technology® (Invitrogen). After sequence control, LR reaction was performed in the final expression pGEX 2Tg vector. Both the proteins were expressed in Escherichia coli BL21pLysS (DE3) strain in auto-induction (Kessler) medium in the presence of […] carbenicillin at 25° C. for 16 h. Cells were harvested by centrifugation, the pellet was re-suspended in Lysis buffer (50 mM Tris-HCl pH 7.8, 150 mM NaCl, 10% glycerol, 0.2% CHAPS, 20 mM DTT, Protease Inhibitor Cocktail Tablets from Roche Biochemicals) and lysed by Gaulin homogenizer (Niro Soavi). The lysate was cleared by centrifugation. The supernatant was added to GSH resin and let flow by gravity. The GSH resin was washed with 5 column volume (CV) of cold wash buffer (50 mM Tris-HCl pH 7.8, 150 mM NaCl, 10% glycerol), then with 10 CV of the same buffer containing 2 mM of DTT. Both GST-Δ49N-hChoKα and hChoKβ were subjected to on-column cleavage of the GST tag with Prescission Protease overnight. The eluted cleaved proteins were further purified by ion exchange (ResQ 6 mL chromatography column from GE healthcare) with a gradient from 50 to 500 mM NaCl in 30 CV. The fractions containing […]Δ49N-hChoKα or hChoKβ were pooled, concentrated and gel filtered on a Superdex200 16/60 (GE Healthcare). The final protein concentration was estimated using the Bradford assay. All the samples purified were resolved by SDS-PAGE.
(§2) Biochemical Kinase inhibition Assay on Δ49N-hChoKα and hChoKβFL
(§3) The biochemical activity of compounds against Δ49N-ChoKα and ChoK3 FL were determined using the Kinase-Glo™ Luminescent Kinase Assay (Promega cat. V6711). The assay is based on incubation of the recombinant Δ49N-hChoKα and hChoKβ FL produced in house, 2.2 nM and 30 nM, respectively, with the specific substrates, choline (Sigma-Aldrich-C7017) and ATP, followed by quantification, at the end of reaction time, of the residual not reacted ATP.
(§4) Compounds were 3-fold serially diluted from 10 to 0.0005 μM, then incubated for 60 minutes at room temperature in the presence of ATP 5 μM, choline (5 μM for ChoKα and 20 μM for ChoKβ) and enzyme in a final volume of 19 μL of kinase buffer (50 mM Hepes pH 7.5, 10 mM MgCl2, 1 mM DTT, 3 μM Na3VO4 and 0.2 mg/mL BSA). The final concentration of DMSO was 1%. The assay was run in a robotized format on 384-well plates (Perkin Elmer cat. #6005301).
(§5) At the end of the incubation, an amount of 19 μL of KinaseGlo Reagent was added to each well to stop the reaction and after 30 minutes the luminescence signal was measured using ViewLux reader (Perkin Elmer).
(§6) All information about plate dilution, distribution and raw data of inhibition are tracked via barcode reading and stored in an Oracle DB. The data per each molecule are analyzed by an internally customized version of the SW package “Assay Explorer” which provides sigmoidal fittings of the ten-dilution curves for IC50 determination using a 4 parameter logistic equation: y=bottom+(top−bottom)/(1+10^((log IC50−x)*slope)) where x is the logarithm of the inhibitor concentration, y is the response; y starts at bottom and goes to top with a sigmoid shape.

hChoKβ FL = biological target: T2, hChoKβ FL (Homo sapiens, UniProt Q9Y259); assay: Biochemical kinase inhibition assay (Kinase-Glo luminescent) on hChoKβ FL; details: recombinant hChoKβ FL 30 nM, ATP 5 μM, choline 20 μM, 60 min rt; read-out: ChoKβ IC50
T2 construct: hChoKβ full length (FL), corresponding to aminoacids 2-395; GST (N, cleaved yes); PreScission Protease recognition site (N); made in house; host or cells: Escherichia coli BL21pLysS (DE3)
Method: as §1, §2, §3, §4, §5, §6

T1 sequence (P35790 50-439 isoform P35790-2): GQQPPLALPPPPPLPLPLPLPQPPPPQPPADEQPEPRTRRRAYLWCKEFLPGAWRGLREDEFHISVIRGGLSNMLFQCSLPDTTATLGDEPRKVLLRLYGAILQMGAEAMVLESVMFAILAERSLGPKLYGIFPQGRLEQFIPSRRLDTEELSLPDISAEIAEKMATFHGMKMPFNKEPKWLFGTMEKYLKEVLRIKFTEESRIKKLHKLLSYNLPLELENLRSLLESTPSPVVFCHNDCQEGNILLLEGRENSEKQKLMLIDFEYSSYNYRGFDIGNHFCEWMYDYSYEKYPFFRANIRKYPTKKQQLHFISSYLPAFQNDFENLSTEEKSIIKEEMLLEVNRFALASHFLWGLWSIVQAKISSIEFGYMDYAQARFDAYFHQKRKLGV
T2 sequence (Q9Y259 2-395): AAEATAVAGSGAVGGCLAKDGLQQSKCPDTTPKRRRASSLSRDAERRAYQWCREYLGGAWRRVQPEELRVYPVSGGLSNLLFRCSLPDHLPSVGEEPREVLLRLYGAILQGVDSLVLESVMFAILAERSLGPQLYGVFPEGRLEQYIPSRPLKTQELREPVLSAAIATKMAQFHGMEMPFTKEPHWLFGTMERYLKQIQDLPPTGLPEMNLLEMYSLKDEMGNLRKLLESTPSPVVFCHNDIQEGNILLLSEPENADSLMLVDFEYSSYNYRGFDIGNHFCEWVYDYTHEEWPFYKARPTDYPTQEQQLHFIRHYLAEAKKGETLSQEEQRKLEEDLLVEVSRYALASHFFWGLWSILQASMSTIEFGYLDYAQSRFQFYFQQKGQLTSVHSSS

Compound | IC50 (Δ49N-hChoKα) [µM] | IC50 (hChoKβ FL) [µM]
CC1(C)Cc2cnc(N)nc2-c2[nH]nc(C(=O)Nc3ccc(OC(F)(F)F)cc3)c21 [compound 3] | 0.992 | > 10
CC1(C)Cc2cnc(N)nc2-c2[nH]nc(C(=O)Nc3ncc(CC(=O)NC4CCCCC4)s3)c21 [compound 73] | 0.138 | 0.604
Cn1nc(C(=O)Nc2nc(CC(=O)N3CCC(N4CCCCC4)CC3)cs2)c2c1-c1nc(N)ncc1CC2(C)C [compound 108] | 0.005 | 3.97
CC1(C)Cc2cnc(N)nc2-c2[nH]nc(C(=O)Nc3ncc(C(=O)O)s3)c21 [compound 82] | 0.3 | 1.73
CN1CCC(NC(=O)c2csc(NC(=O)c3n[nH]c4c3C(C)(C)Cc3cnc(N)nc3-4)n2)CC1 [compound 69] | 0.036 | 0.088
CC1(C)Cc2cnc(N)nc2-c2[nH]nc(C(=O)Nc3nc(CC(=O)N4CCC(CO)CC4)cs3)c21 [compound 91] | 0.098 | > 10
CC1(C)Cc2cnc(N)nc2-c2[nH]nc(C(=O)Nc3nc(CC(=O)N4CC[C@H](O)C4)cs3)c21 [compound 88] | 0.141 | > 10
CC1(C)Cc2cnc(N)nc2-c2[nH]nc(C(=O)Nc3ccc(C(=O)NC4CCCC4)cc3)c21 [compound 29] | 0.132 | 0.071
CC1(C)Cc2cnc(N)nc2-c2[nH]nc(C(=O)Nc3cccc(C=O)c3)c21 [compound 107] | 0.737 | 2.68
CC(C)(C)OC(=O)NC1CCN(C(=O)Cc2csc(NC(=O)c3n[nH]c4c3C(C)(C)Cc3cnc(N)nc3-4)n2)CC1 [compound 43] | 0.007 | 1.03
CC1(C)Cc2cnc(N)nc2-c2[nH]nc(C(=O)Nc3cccc(C(=O)NC4CCCCC4)c3)c21 [compound 25] | 0.253 | 0.625
CC1(C)Cc2cnc(N)nc2-c2[nH]nc(C(=O)Nc3ncc(C(=O)N4CCC(N5CCCCC5)CC4)s3)c21 [compound 84] | 0.111 | 1.33
CC1(C)Cc2cnc(N)nc2-c2[nH]nc(C(=O)Nc3ncc(CC(=O)N4CCC(N5CCCCC5)CC4)s3)c21 [compound 75] | 0.047 | 1.75
CC1(C)Cc2cnc(N)nc2-c2[nH]nc(C(=O)Nc3ccc(C(=O)NC4CCCCC4)cc3)c21 [compound 16] | 0.075 | 0.063
CC1(C)Cc2cnc(N)nc2-c2[nH]nc(C(=O)Nc3ccc(C(=O)N4CCC(N)CC4)cc3)c21 [compound 49] | 0.623 | 0.765
CCOC(=O)c1cccc(NC(=O)c2n[nH]c3c2C(C)(C)Cc2cnc(N)nc2-3)c1 [compound 17] | 0.795 | 2.29
CC1(C)Cc2cnc(N)nc2-c2[nH]nc(C(=O)Nc3nc(CC(=O)NC4CCCCC4)cs3)c21 [compound 35] | 0.047 | 0.439
CC1(C)Cc2cnc(N)nc2-c2[nH]nc(C(=O)Nc3ccc(C(=O)N4CCC(N5CCCCC5)CC4)cc3)c21 [compound 20] | 0.024 | 0.076
CC1(C)Cc2cnc(N)nc2-c2[nH]nc(C(=O)NC3CCCCC3)c21 [compound 34] | 0.748 | > 10
CC1(C)Cc2cnc(N)nc2-c2[nH]nc(C(=O)Nc3nc4ccc(Cl)cc4s3)c21 [compound 64] | 0.306 | 4.92
CNC(=O)c1nn(C)c2c1C(C)(C)Cc1cnc(N)nc1-2 [Ref. cpd 2, reference compound] | > 10 | 
Cn1nc(C(N)=O)c2c1-c1nc(N)ncc1CC2(C)C [Ref. cpd 1, reference compound] | > 10 | 

The next lines start with the values.

IC50 (Δ49N-hChoKα) [µM] | IC50 (hChoKβ FL) [µM] | Compound
0.629 | > 10 | Cc1csc(NC(=O)c2nn(C)c3c2C(C)(C)Cc2cnc(N)nc2-3)n1 [compound 155]
0.617 | > 10 | COC(=O)C1(c2csc(NC(=O)c3n[nH]c4c3C(C)(C)Cc3cnc(N)nc3-4)n2)CC1 [compound 127]
0.005 | 0.23 | CC1(C)Cc2cnc(N)nc2-c2[nH]nc(C(=O)Nc3nc(COC4CCN(C5CCCCCC5)CC4)cs3)c21 [compound 209]
0.64 | > 10 | CC1CCN(C2CCN(Cc3cccc(NC(=O)c4nn(C)c5c4C(C)(C)Cc4cnc(N)nc4-5)c3)CC2)CC1 [compound 111]
0.016 | > 10 | CN(C)C1CCN(Cc2ccc(NC(=O)c3nn(C)c4c3C(C)(C)Cc3cnc(N)nc3-4)cc2)CC1 [compound 117]
0.357 | 1.1 | CN(C)[C@@H]1CCN(Cc2csc(NC(=O)c3n[nH]c4c3C(C)(C)Cc3cnc(N)nc3-4)n2)C1 [compound 148]
0.011 | > 10 | CNc1ncc2c(n1)-c1[nH]nc(C(=O)Nc3nc(CC(=O)N4CCC(N5CCC(C)CC5)CC4)cs3)c1C(C)(C)C2 [compound 122]
0.108 | > 10 | CC1CCN(C2CCN(C(=O)Cc3csc(NC(=O)c4c5c(nn4C)-c4nc(N)ncc4CC5(C)C)n3)CC2)CC1 [compound 211]
0.164 | 3.21 | CC1(C)Cc2cnc(N)nc2-c2[nH]nc(C(=O)Nc3cccc(CC(=O)N4CCC(N)CC4)c3)c21 [compound 149]
0.065 | 0.551 | CN(C)C1CCN(C(=O)Cc2cccc(NC(=O)c3n[nH]c4c3C(C)(C)Cc3cnc(N)nc3-4)c2)CC1 [compound 146]
0.546 | 0.688 | CC1(C)Cc2cnc(N)nc2-c2[nH]nc(C(=O)Nc3ncc[nH]3)c21 [compound 144]
0.014 | 0.564 | CC1(C)Cc2cnc(N)nc2-c2[nH]nc(C(=O)Nc3nc(CC(=O)N4CC[C@@H]([N+](C)(C)[O-])C4)cs3)c21 [compound 154]
0.008 | 0.546 | CC1(C)CCC(N2CCC(OCc3csc(NC(=O)c4n[nH]c5c4C(C)(C)Cc4cnc(N)nc4-5)n3)CC2)CC1 [compound 190]
0.017 | 0.887 | CC1CCN([C@H]2CC[C@H](OCc3csc(NC(=O)c4n[nH]c5c4C(C)(C)Cc4cnc(N)nc4-5)n3)CC2)CC1 [compound 170]
0.187 | 2.13 | CC1CCN(C2CCN(Cc3cccc(NC(=O)c4n[nH]c5c4C(C)(C)Cc4cnc(N)nc4-5)c3)CC2)CC1 [compound 112]
0.009 | 2.26 | CC1CCN(C2CCN(C(=O)Cc3csc(NC(=O)c4nn(C)c5c4CC(C)(C)c4cnc(N)nc4-5)n3)CC2)CC1 [compound 225]
0.01 | 0.782 | CC1(C)CCC(N2CCC(OCc3csc(NC(=O)c4n[nH]c5c4C(C)(C)Cc4cnc(N)nc4-5)n3)CC2)CC1 [compound 221]
0.003 | 0.104 | CC1CCN(C2CCN(C(=O)Cc3csc(NC(=O)c4n[nH]c5c4CC(C)(C)c4cnc(N)nc4-5)n3)CC2)CC1 [compound 231]
0.008 | 0.457 | CC1(C)Cc2cnc(N)nc2-c2[nH]nc(C(=O)Nc3nc(COC4CCN(CC5CCCCC5)CC4)cs3)c21 [compound 212]
0.031 | 1.56 | CC1(C)Cc2cnc(N)nc2-c2[nH]nc(C(=O)Nc3nc(COC4CCN(C5CCC(F)(F)CC5)CC4)cs3)c21 [compound 189]
